Non-standard residues stand in square brackets, D forms with d. Residues, ends and D or L forms follow the SMILES beside them. *: point of attachment. 5FAM = O=C1OC2(c3ccc(O)cc3Oc3cc(O)ccc32)c2ccc(C(=O)*)cc21; pY = N[C@@H](Cc1ccc(OP(=O)(O)O)cc1)C(=O)O
Key:
CCRF-CEM cells = test: MTS cell viability (cytotoxicity) assay; settings: peptide 10, 50 and 100 µM (up to 100 µM), 3 h incubation, 37 °C, read at 490 nm, triplicate
Experimental: (§1) To determine concentration of peptide to be used in in vitro assays, the cytotoxicity of peptides was evaluated in two cell lines, human ovarian (SK-OV-3) and leukemia (CCRF-CEM) cancer cells.
(§2) Human leukemia CCRF-CEM (ATCC # CCL-119) and ovarian carcinoma SK-OV-3 (ATCC # HTB-77) cell lines were purchased from the American Type Culture Collection. Cells were grown on 75 cm^2 cell culture flasks. The Roswell Park Memorial Institute (RPMI)-1640 medium was used for leukemia cells and McCoy’s 5A medium was used for SK-OV-3 cells. The medium was supplemented with 10% fetal bovine serum (FBS), 1% penicillin−streptomycin solution (10,000 units of penicillin, and 10 mg of streptomycin in 0.9% NaCl) in a humidified atmosphere of 5% CO2 at 37 °C. All bioassays were performed in triplicate.
(§3) The cytotoxicity assay was performed via an MTS proliferation assay in CCRF-CEM and SK-OV-3 cells. CCRF-CEM (40,000 cells) and SK-OV-3 (5000 cells) were incubated with 100 µL of complete media. The cells were seeded overnight in 96 well plates. […] The fluorescence intensity of the formazan product was measured at 490 nm using a Spectra Max M2 microplate spectrophotometer. The percentage of cell survival was calculated as [(OD value of cells treated with the test mixture of compounds) − (OD value of culture medium)]/[(OD value of control cells) − (OD value of culture medium)] × 100%.

SK-OV-3 cells [1] = test: MTS cell viability (cytotoxicity) assay; settings: peptide 10, 50 and 100 µM (up to 100 µM), 3 h incubation, 37 °C, read at 490 nm, triplicate
Experimental: as §1, §2, §3

SK-OV-3 cells [2] = test: Live cell fluorescence microscopy of F’-GpYEEI uptake; assay type: cell-based, human; settings: F’-GpYEEI 5 µM alone, no carrier peptide, 3 h, FITC channel
Experimental: Fluorescence microscopy was used to confirm the intracellular uptake of F’-GpYEEI in the presence of cyclic [WH]5. The fluorescence intensity of F’-GpYEEI (5 µM) was visualized in a physical mixture with cyclic [WH]5 (50 µM) compared to that of F’-GpYEEI alone in SK-OV-3 cells. […] F’-GpYEEI alone was used as a control in this assay. Live cell imaging was carried using glass-bottom plates.
SK-OV-3 cells were grown with antibiotic-free DMEM 24 h prior to the experiment in a glass bottom petri-dish (60 mm × 15 mm) of 5000 cells per mL of media. The F’-GpYEEI was incubated with cyclic [WH]5 for 30 min at room temperature. Then, the cells were treated with a mixture of F’-GpYEEI (5 μM) and cyclic [WH]5 (50 μM) in Opti-MEM for 3 h at 37 °C. After 3 h, the medium containing the treatments was removed, and PBS was added to cells. The cells were washed with PBS for two times. Images were acquired with BZ-X710 fluorescence microscope (Keyence, Osaka, Japan) at 100× magnification for brightfield and FITC channels. Images were merged and processed using Image J software to visualize the fluorescence uptake by cells.

Compound | cytotoxicity (cell survival, MTS) (CCRF-CEM cells) | cytotoxicity (cell survival, MTS) (SK-OV-3 cells [1]) | cellular uptake of F’-GpYEEI alone (fluorescence microscopy) (SK-OV-3 cells [2])
O=C1N[C@@H](Cc2c[nH]c3ccccc23)C(=O)N[C@@H](Cc2c[nH]cn2)C(=O)N[C@@H](Cc2c[nH]c3ccccc23)C(=O)N[C@@H](Cc2c[nH]cn2)C(=O)N[C@@H](Cc2c[nH]c3ccccc23)C(=O)N[C@@H](Cc2c[nH]cn2)C(=O)N[C@@H](Cc2c[nH]c3ccccc23)C(=O)N[C@@H](Cc2c[nH]cn2)C(=O)N[C@@H](Cc2c[nH]c3ccccc23)C(=O)N[C@H]1Cc1c[nH]cn1 [cyclic [WH]5] (cyclo(HWHWHWHWHW)) | did not show significant toxicity | did not show significant toxicity | –
CC[C@H](C)[C@H](NC(=O)[C@H](CCC(=O)O)NC(=O)[C@H](CCC(=O)O)NC(=O)[C@H](Cc1ccc(OP(=O)(O)O)cc1)NC(=O)CNC(=O)c1ccc2c(c1)C(=O)OC21c2ccc(O)cc2Oc2cc(O)ccc21)C(=O)O [F’-GpYEEI] (5FAM-G[pY]EEI-OH) | – | – | No green fluorescence was observed

Source: article PMC6100250, “Efficient Intracellular Delivery of Cell-Impermeable Cargo Molecules by Peptides Containing Tryptophan and Histidine” (Molecules : A Journal of Synthetic Chemistry and Natural …, 2018)
